Holding throughout (assay): Kinase panel study
Format in all cases: biochemical
Common to all, as to settings: read-out: Percentage of inhibition; for inhibition at 1 µM: 1000nM; for inhibition at 10 µM: 10000nM

In one experiment the target is T1, AURKC (Aurora C) (Homo sapiens, UniProt Q9UQB9).
T1 construct: purchased Thermo Fisher Scientific
T1 sequence (Q9UQB9 1-309): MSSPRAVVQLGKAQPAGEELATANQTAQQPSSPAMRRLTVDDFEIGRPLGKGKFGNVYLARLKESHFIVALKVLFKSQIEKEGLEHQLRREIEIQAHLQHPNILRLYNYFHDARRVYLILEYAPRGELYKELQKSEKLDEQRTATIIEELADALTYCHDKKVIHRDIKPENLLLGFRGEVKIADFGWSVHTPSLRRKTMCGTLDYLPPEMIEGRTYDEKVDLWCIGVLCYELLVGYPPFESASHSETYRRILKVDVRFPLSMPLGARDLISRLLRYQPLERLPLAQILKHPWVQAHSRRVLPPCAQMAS
An outline of the steps: (§1)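 Readout is percentage kinase inhibition. Testing used 1 µM or 10 µM compound in externally run ZLyte/Adapta in vitro assays, and IC50 values were derived within the same panel.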

In a further experiment the target is T2, CDC42 BPA (MRCKA) (Homo sapiens, UniProt Q5VT25).
T2 construct: purchased Thermo Fisher Scientific
An outline of the steps: as §1

The target of a further experiment is T3, DAPK1 (Homo sapiens, UniProt P53355).
T3 construct: purchased Thermo Fisher Scientific
In outline:
as §1

The next experiment has as its target T4, DYRK4 (Homo sapiens, UniProt Q9NR20).
T4 construct: purchased Thermo Fisher Scientific
T4 sequence (Q9NR20 1-520): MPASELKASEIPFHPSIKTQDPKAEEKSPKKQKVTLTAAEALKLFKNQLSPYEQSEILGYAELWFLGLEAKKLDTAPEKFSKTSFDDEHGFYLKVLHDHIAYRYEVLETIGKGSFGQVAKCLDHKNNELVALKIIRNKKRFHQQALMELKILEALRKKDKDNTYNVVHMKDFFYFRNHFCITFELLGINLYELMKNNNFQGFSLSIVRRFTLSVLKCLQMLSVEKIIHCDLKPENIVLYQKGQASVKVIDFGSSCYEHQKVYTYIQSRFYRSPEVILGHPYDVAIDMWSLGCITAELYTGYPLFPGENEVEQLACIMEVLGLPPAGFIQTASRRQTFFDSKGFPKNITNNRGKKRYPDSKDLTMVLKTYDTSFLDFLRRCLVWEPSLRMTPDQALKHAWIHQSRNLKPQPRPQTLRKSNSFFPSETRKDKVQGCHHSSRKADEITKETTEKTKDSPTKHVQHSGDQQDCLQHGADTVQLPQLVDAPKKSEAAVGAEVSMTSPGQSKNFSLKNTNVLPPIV
An outline of the steps:
as §1

In a further experiment the target is T5, LYN B (Homo sapiens, UniProt P07948).
T5 construct: purchased Thermo Fisher Scientific
In outline:
as §1

A further experiment has as its target T6, MAP4K5 (KHS1) (Homo sapiens, UniProt Q9Y4K4).
T6 construct: purchased Thermo Fisher Scientific
In outline:
as §1

A further experiment has as its target T7, MET M1250T (Homo sapiens, UniProt P08581, M1250T).
T7 construct: purchased Thermo Fisher Scientific
In outline: as §1

The target of the next experiment is T8, PTK2B (FAK2) (Homo sapiens, UniProt Q14289).
T8 construct: purchased Thermo Fisher Scientific
In outline: as §1

The next experiment has as its target T9, SGK2 (Homo sapiens, UniProt Q9HBY8).
T9 construct: purchased Thermo Fisher Scientific
T9 sequence (Q9HBY8 1-367): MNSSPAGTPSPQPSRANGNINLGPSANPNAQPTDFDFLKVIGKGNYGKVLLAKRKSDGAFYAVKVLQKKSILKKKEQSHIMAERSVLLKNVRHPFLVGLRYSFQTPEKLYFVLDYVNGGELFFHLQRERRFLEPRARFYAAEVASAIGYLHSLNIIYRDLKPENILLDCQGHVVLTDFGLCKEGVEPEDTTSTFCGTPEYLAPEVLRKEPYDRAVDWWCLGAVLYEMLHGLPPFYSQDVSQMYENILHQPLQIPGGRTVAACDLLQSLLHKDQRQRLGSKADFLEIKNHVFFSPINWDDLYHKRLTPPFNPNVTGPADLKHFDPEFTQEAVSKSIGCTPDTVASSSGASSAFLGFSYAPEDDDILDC
An outline of the steps: as §1

Another experiment addresses T10, YES1 (Homo sapiens, UniProt P07947).
T10 construct: purchased Thermo Fisher Scientific
In outline: as §1

T8 sequence (Q14289 whole entry): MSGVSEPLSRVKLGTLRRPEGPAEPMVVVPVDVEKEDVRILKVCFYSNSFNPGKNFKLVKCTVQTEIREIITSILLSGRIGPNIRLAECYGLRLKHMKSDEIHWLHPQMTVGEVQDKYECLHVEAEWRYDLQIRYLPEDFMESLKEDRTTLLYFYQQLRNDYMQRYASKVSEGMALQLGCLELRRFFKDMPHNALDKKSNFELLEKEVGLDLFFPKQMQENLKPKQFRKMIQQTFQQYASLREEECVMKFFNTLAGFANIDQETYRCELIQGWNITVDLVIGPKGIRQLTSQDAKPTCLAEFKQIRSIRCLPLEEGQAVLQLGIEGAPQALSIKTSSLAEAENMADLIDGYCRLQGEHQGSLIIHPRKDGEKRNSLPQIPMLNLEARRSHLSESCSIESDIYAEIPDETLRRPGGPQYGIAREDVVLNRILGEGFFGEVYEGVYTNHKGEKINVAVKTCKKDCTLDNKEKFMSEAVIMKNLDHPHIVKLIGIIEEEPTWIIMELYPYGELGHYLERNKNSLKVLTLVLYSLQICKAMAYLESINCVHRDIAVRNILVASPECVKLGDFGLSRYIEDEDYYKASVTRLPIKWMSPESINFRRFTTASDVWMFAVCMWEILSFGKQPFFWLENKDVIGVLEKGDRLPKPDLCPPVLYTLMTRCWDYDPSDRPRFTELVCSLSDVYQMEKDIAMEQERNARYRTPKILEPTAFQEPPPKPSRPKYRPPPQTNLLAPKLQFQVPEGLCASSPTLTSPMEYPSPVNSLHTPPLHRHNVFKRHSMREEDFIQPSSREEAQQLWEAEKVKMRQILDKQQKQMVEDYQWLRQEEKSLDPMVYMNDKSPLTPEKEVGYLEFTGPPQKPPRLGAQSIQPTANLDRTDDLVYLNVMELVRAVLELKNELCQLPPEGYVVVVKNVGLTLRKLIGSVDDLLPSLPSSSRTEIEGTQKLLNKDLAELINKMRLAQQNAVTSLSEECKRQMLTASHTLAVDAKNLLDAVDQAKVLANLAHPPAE
T5 sequence (P07948 1-491 isoform P07948-2): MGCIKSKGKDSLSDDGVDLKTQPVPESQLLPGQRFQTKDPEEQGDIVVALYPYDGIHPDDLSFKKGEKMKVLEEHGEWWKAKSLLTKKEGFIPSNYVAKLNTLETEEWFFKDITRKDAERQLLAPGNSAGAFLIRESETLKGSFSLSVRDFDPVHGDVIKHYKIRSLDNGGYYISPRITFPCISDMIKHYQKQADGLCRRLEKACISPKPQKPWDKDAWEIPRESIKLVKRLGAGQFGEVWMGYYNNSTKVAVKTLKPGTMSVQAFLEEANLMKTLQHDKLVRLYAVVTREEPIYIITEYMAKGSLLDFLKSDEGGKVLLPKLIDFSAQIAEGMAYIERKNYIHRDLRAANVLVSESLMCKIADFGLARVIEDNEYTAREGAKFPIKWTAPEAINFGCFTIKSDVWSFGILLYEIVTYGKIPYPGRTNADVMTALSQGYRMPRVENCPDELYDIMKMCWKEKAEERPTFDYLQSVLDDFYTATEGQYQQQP
T6 sequence (Q9Y4K4 whole entry): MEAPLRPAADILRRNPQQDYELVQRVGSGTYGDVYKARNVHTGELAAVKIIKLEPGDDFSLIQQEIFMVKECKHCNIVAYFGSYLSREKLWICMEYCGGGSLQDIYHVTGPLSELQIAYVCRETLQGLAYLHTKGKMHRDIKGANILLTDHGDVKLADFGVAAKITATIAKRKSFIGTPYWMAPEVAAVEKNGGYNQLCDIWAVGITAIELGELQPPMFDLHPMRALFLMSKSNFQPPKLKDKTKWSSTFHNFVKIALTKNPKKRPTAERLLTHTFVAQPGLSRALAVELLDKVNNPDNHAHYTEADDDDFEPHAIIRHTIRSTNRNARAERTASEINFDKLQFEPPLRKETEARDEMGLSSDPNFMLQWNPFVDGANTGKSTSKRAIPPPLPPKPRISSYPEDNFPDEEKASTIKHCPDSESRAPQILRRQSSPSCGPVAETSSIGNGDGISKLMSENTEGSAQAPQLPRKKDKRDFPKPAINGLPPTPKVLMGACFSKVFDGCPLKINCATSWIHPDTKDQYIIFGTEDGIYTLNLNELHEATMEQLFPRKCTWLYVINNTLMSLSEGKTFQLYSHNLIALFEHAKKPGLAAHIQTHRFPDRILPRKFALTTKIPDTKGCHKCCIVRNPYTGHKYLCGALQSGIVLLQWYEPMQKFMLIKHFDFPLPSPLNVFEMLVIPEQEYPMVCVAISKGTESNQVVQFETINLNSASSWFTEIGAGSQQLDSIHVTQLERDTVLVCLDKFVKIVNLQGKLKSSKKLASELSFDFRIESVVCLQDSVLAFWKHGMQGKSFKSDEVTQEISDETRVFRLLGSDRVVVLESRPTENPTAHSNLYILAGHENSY
T3 sequence (P53355 whole entry): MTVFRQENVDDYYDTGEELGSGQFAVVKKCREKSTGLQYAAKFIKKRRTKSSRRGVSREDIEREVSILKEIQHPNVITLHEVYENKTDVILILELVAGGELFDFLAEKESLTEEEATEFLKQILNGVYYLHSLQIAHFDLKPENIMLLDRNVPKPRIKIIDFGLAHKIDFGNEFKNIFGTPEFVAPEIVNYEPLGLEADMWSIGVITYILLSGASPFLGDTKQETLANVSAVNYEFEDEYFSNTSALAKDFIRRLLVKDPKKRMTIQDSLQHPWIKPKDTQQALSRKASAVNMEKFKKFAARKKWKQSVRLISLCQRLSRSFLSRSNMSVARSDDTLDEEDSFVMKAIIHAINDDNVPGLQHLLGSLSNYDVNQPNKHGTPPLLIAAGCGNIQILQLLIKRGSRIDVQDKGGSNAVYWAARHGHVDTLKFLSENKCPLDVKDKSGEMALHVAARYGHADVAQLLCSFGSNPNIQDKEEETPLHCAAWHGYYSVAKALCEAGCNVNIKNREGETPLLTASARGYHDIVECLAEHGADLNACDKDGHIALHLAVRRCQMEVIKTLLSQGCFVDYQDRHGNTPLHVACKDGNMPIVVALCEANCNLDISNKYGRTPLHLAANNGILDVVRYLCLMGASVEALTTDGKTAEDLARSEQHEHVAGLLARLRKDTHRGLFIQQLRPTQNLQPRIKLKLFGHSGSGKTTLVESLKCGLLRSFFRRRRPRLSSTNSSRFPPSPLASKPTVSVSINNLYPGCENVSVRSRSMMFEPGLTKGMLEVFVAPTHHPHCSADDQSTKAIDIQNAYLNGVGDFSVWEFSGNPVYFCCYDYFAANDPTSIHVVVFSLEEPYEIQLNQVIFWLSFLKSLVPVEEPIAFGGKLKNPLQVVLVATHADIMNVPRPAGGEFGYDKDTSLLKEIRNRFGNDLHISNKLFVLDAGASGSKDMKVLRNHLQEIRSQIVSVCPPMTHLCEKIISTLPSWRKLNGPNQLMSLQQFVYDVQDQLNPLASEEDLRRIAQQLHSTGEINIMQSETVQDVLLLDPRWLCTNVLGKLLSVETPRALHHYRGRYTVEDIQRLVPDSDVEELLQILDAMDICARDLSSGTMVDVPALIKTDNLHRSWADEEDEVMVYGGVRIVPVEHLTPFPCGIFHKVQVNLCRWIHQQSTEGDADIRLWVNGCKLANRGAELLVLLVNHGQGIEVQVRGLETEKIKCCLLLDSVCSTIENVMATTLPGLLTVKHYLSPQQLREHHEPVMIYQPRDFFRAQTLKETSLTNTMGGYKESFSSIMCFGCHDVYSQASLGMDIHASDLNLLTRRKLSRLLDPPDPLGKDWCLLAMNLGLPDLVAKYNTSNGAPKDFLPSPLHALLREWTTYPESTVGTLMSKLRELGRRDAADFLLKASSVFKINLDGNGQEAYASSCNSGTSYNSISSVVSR
T10 sequence (P07947 whole entry): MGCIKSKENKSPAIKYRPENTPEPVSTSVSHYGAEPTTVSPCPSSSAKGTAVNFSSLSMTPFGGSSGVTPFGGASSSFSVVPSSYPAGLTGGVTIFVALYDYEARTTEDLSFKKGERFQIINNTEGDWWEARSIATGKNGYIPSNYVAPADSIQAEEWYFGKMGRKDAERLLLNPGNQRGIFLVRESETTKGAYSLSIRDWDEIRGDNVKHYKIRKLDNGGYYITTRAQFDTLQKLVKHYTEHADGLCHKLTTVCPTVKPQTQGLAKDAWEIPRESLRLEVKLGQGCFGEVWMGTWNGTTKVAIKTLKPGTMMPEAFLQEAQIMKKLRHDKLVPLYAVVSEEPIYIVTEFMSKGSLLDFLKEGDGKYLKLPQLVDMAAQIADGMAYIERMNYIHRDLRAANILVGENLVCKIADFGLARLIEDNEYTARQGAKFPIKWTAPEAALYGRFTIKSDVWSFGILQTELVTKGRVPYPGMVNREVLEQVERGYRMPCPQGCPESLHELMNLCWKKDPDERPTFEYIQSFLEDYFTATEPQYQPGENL

Consider `COc1ccc2c(c1OC)c(=O)n1c3ccc(O)cc3c3ccnc2c31` [MW01, 5-Hydroxy-10,11-dimethoxy-9H-benzo[c]indolo[3,2,1-ij][1,5]naphthyridin-9-one], for which the inhibition at 1 µM was 8% at AURKC (Aurora C); 11% on CDC42 BPA (MRCKA); 8% on DAPK1; -2% at DYRK4; 6% at LYN B; 39% at MAP4K5 (KHS1). For the same molecule, the inhibition at 1 µM on MET M1250T worked out at 19%; at PTK2B (FAK2) it was 2%; on SGK2 it was 6%; at YES1, 17%. The inhibition at 10 µM was determined as 10% at AURKC (Aurora C); 15% on CDC42 BPA (MRCKA); 14% at DAPK1; 0% on DYRK4; 23% at LYN B; 68% at MAP4K5 (KHS1). The inhibition at 10 µM at MET M1250T was found to be 42%; on PTK2B (FAK2), 9%; at SGK2, 14%; on YES1 it was 16%.
As to `COc1ccc2cc3c(N)nn(C(=O)c4cccc(N(C)C)c4)c3nc2c1` [MW05, (3-Amino-7-methoxypyrazolo[3,4-b]quinolin-1-yl)-[3-(dimethylamino)phenyl]methanone], the inhibition at 1 µM on AURKC (Aurora C) amounted to 9%; on CDC42 BPA (MRCKA) it was 9%; on DAPK1 it was 3%; on DYRK4 it was 4%; on LYN B, 6%; at MAP4K5 (KHS1) it was 15%. The inhibition at 1 µM at MET M1250T is 1%; at PTK2B (FAK2), -2%; at SGK2, -3%; at YES1, 15%. Further, the inhibition at 10 µM on AURKC (Aurora C) stood at 9%; on CDC42 BPA (MRCKA) it was 2%; on DAPK1 it was 3%; at DYRK4, 4%; on LYN B it was 0%; on MAP4K5 (KHS1), 4%. Also, the inhibition at 10 µM is -15% on MET M1250T, -7% on PTK2B (FAK2), -11% on SGK2 and 20% on YES1.

The values above are taken from EP4467141A1, “PYRAZOLO-QUINOLINES AS SELECTIVE INHIBITORS OF GENOTOXIC STRESS-INDUCED IKK/NF- KB PATHWAYS FOR CANCER THERAPY” (Max-Delbrück-Centrum für Molekulare Medizin in der …, priority 2023, dated 2024).
